The values below are quoted from earlier work in patent US20070212386A1, “COATINGS FOR IMPLANTABLE MEDICAL DEVICES” (Sahajanand Medical Technologies Pvt. Ltd., priority 2006, published 2007).

For series [1] the following is noted: general statement.
Series [2] relates to collagen induced platelet aggregation. To be noted: literature refs [2,5].

Turning to `O=c1c(-c2ccc(O)cc2)coc2cc(O)cc(O)c12` [Genistein, 5,7-dihydroxy-3-(4-hydroxyphenyl)-4H-1-benzopyran-4-one], the solubility in water entry in series [1] was “practically insoluble in water”. The “concentration preventing collagen induced platelet aggregation” value in series [2] is reported as “more than 25 μM”.

With `O=c1c(O)c(-c2ccc(O)c(O)c2)oc2cc(O)cc(O)c12` [Quercetin, 2-(3,4-dihydroxyphenyl)-3,5,7-trihydroxy-4H-1-benzopyran-4-one], the solubility in water result in series [1] was “practically insoluble in water”.

Consider `O=c1c(-c2ccc(O)cc2)coc2cc(O[C@@H]3O[C@H](CO)[C@@H](O)[C@H](O)[C@H]3O)cc(O)c12` [Genistin], for which the solubility in water entry in series [1] is reported as “greater water solubility than genistein”.
